From a melting point compilation (Tetko et al.; mined from patent text by program, amines drawn as free bases though some values may be those of a salt) come the findings set out here.

As for `CS(=O)(=O)OCCC1=C(CCOS(C)(=O)=O)c2ccccc2Sc2ccccc21`, the melting point (usually the temperature of the solid-liquid transition) was in the range of 107 to 108 °C. Under `CCOC(=O)c1ccc2cc(-c3cc4ccccc4o3)ccn2c1=O` stands 195 to 197 °C; under `OC(CCc1ccccc1)c1cc2ccncc2[nH]1` (configuration not stated), 162 to 166 °C. `COc1ccc(-n2c(=O)[nH]c3c(C(N)=O)nc(-c4cccc(O)c4)nc32)c(C)c1` returned a melting point of 355 to 357 °C. Next, `NC(=S)/C=C1\CCc2ccc(F)cc21`: 178 to 179 °C; `CC(=O)OC1CSC(Oc2ccc(-c3sc(C)nc3C)nc2)C(OC(C)=O)C1OC(C)=O` (configuration not stated): 174 to 177 °C. Next, `CCOC(=O)c1cnc2nc(C)ccc2c1OCC`: 82 to 83 °C; `CCCOc1ccccc1C(=O)Nc1sccc1C(N)=O`: 176 to 178 °C; `CCOC(=O)C(OCc1ccc(-c2ccc(Cl)cc2)cc1)(C(F)(F)F)C(F)(F)F`: 62 to 62.5 °C. Next, `Cc1nc(-c2ccccc2)nc(-c2cccc([N+](=O)[O-])c2)c1C(=O)O`: 208 to 209 °C; `FC(F)(F)c1cc(-c2ccc(Cl)cc2)nc(-n2cnc(I)c2)n1`: 258 °C; `CSc1sc(C(=O)N(C)C)c2c1-c1oncc1C(C)(C)C2`: 113 to 115 °C. In turn, `CC1(C)OC[C@H]([C@@H](CS(=O)(=O)c2ccc(Oc3ccc(Cl)cc3)cc2)N(O)C=O)O1` showed a melting point of 157 to 158 °C. With `OC[C@H]1CC[C@H](c2ccc(Cl)cc2)CC1`, the melting point lay within 60 to 63 °C.

The compound `CCCCc1nn(-c2ccc(NCc3ccccc3)cc2C(F)(F)F)c(=O)n1Cc1ccc(-c2ccccc2S(=O)(=O)NC(=O)c2ccccc2Cl)cc1` displayed a melting point greater than 107 °C. Under `CCOP(=O)(/C=C/c1cn(-c2ccccc2)nc1OCc1ccc(OCc2nc(-c3ccc(C(=O)OC)cc3)oc2C)c(OC)c1)OCC` stands 129 to 130 °C; under `COc1ccc2cccc(C(F)CNC(C)=O)c2c1` (configuration not stated), 128 to 130 °C.

The compound `O=C(CCCN1CCN(c2cccc(Cl)c2)CC1)N1CCc2ccccc21` had a melting point of 102 to 107 °C. Under `Cc1c(O)ccc2c1OCC(c1ccc3c(c1)OCO3)C2` (configuration not stated) stands 130 to 131 °C. Next, `CNC(=O)c1cn2c(C)c(C)nc2c(O)c1CC[C@@H](O)c1ccccc1`: 250 to 252 °C; `CS(=O)(=O)c1ccc(C(=O)N[C@H]2CC[C@H](CCN3CCN(c4nccc5c4CCO5)CC3)CC2)s1`: 229 °C.

`Cn1cncc1C(c1ccc(Cl)cc1)c1ccc(N)c(C(=O)c2cccc(Cl)c2)c1` (configuration not stated): the melting point was 179 °C. Under `O=C(Nc1c(C(O)(C(F)(F)F)C(F)(F)F)ccc2ccccc12)c1cnc2ccccc2n1` stands greater than 240 °C; under `COC(=O)C1=CC(=O)C(C)(c2ccccc2)O1` (configuration not stated), 60 to 62 °C. Under `Cc1ccc2c(Br)c(Br)sc2c1` stands 67.5 to 68.5 °C; under `CC(C)(C)c1nc(C=Cc2cccnc2)nc(C(C)(C)C)c1O`, 150 to 151 °C; under `CCC(C)(C)C(=O)OCc1cccc(C)c1OCCOc1ccc([C@H](N)C(=O)O)cc1`, 170 to 172 °C. Under `COC(=O)CSCc1cccc(-c2nc(=O)c3ccccc3s2)n1` stands 108 to 110 °C; under `CC(=O)Nc1nc2c(Oc3cc(-c4ccc(C(F)(F)F)cc4Br)ncn3)cccc2s1`, 260 °C; under `Nc1nc(N)nc(C23CCN(CC2)CC3)n1`, greater than 245 °C. For `CCn1nc(C(N)=O)cc1CC(C)(C)NC(=O)OC(C)(C)C`, the melting point was in the range of 178 to 180 °C.

The compound `O=C(CBr)c1ccc(-c2ccc(F)cc2)cc1` had a melting point of 102 to 103 °C. As for `FC(F)(F)c1cccc(-c2cc(C(F)(F)F)n3ncc(I)c3n2)c1`, the melting point worked out at 142 °C. Next, `Nc1cc(F)ccc1C(=O)Oc1ccccc1`: 69 to 70 °C; `COc1ccc(-c2nc(-c3cccs3)c[nH]2)cc1C`: 110 to 114 °C; `OC[C@H]1O[C@@H](n2cnc3c(N[C@@H]4CCN(c5ccc(C(F)(F)F)cn5)C4)ncnc32)[C@H](O)[C@@H]1O`: 166 to 170 °C.

In turn, `COC(=O)C(F)[C@@H]1[C@H]2O[C@H]2C[C@H]1O` (some centres not stated) returned a melting point of 31 to 33 °C.

`CCNC(=O)c1ccc(CN2C(=O)C3(COc4cc5c(cc43)CCO5)c3ccccc32)cc1` (configuration not stated): the melting point fell in the range of 190 to 191 °C. Next, `O=C(O)c1ccc(-c2csc(-c3ccc(C(F)(F)F)cc3)n2)cc1`: 275 to 276 °C; `Nc1c(CCO)cccc1C(O)c1ccccc1` (configuration not stated): 101 °C; `CCCOc1c(OC)cc(Cl)c2c1CN1CCc3cc(OC)c(OCc4ccccc4)cc3C1C2` (configuration not stated): 118 to 120 °C. Next, `CCC(=O)Nc1ccc2[nH]cc(C3CCN(C)CC3)c2n1`: 98.9 to 101 °C.

Take `O=C(O)c1ccccc1NCCCc1ccccc1`: the melting point lay in the range of 103 to 105 °C.

For the compound `CC1(C)CC(=O)Nc2ccc(-c3cccc(F)c3)cc21`, the melting point lay in the range of 190 to 192 °C.

Consider `CCCCCCC(C(=O)OCC)n1c(C(F)(F)C(F)(F)F)nc2cc(-c3ccccc3-c3nn[nH]n3)ccc21` (configuration not stated), for which the melting point was in the range of 70 to 72 °C. Next, `CC(=O)Nc1nc2cc(CN3CCN(C(c4ccccc4)c4ccccc4)CC3)ccc2n1C`: 202 °C; `COc1cc2c3c(c1)[nH]c(=S)n3CCC2`: 188 to 192 °C; `CN(C(=O)N1Cc2nc(C(O)c3ccccc3)n(Cc3ccccc3)c2CC1CO)c1ccccc1` (configuration not stated): 107 to 120 °C. Next, `COC(=O)C1(Cc2ccc(Br)cc2)CC(=O)CN1C(=O)Nc1cc(Cl)cc(Cl)c1` (configuration not stated): 194 °C; `O=c1c2ccccc2ccn1Cc1ccc(F)cc1`: 107 °C. In turn, `CS(=O)(=O)n1c(Cc2ccc(C(=O)O)cc2)cc2cc(Cl)ccc21` gave a melting point of 244 °C. As to `Cc1ccc(C2CN(c3cc4nc5c(cc4cc3F)c(=O)c(C(=O)O)cn5C)CCN2)cc1C` (racemic), the melting point came out at 276 °C. In turn, `CCOC(=O)c1cnn2c(-c3cccc(NC(=O)C4CCC4)c3)ccnc12` showed a melting point of 123 to 125 °C. Next, `CC(C)(CS(=O)(=O)c1ccc(Oc2ccc(OC(F)(F)F)cc2)cc1)N(O)C=O`: 128 to 129 °C; `CCC(Oc1cccc(C(F)(F)F)c1C)C1=NCCN1` (configuration not stated): 120 to 122 °C. Under `CNC(=O)N(C)c1nnc(C(C)(C)CC#N)s1` stands 133 to 135 °C; under `CCC(O)(CC)c1cc(Br)ccc1N`, 64 to 66 °C. Next, `COC(=O)c1ccc(OCCN2CCN(c3cc(Cl)nnc3Cl)CC2)nc1`: 145 to 146 °C. Compound `CC(C)(C)C(=O)c1sc(NC(=O)c2ccncc2)nc1-c1ccco1` registered a melting point of 240 to 245 °C. Next, `COC(=O)c1ccc(=O)[nH]c1`: 166 to 172 °C; `CC1(C)C(C#CC(=O)OCC2CC2)C1C(=O)OC(C#N)c1cccc(Oc2ccccc2)c1` (configuration not stated): 72 °C.

`CC(=O)NCCCn1c(-c2ccc(Br)cc2)csc1=Nc1ccccc1` showed a melting point of 155 to 157 °C.
